The target of the assay is T1, Human Factor XIIa (Homo sapiens, UniProt P00748).
T1 construct: purchased Enzyme Research Laboratories
T1 sequence (P00748 373-615 limits assumed): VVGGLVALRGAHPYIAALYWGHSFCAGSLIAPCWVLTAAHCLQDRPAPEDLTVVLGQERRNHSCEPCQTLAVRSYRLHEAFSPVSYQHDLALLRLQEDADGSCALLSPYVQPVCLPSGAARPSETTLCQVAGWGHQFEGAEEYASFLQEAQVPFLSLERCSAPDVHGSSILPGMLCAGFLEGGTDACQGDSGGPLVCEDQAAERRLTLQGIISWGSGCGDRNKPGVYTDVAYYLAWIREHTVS
The assay is described as follows: Factor XIIa inhibitory activity in vitro (fluorogenic substrate H-DPro-Phe-Arg-AFC). The conditions noted are these: 25° C., class symbols, read-out: Human FXIIa IC50. It counts as biochemical. The protocol:
Determination of the % Inhibition for FXIIa
Human Factor XIIa (Enzyme Research Laboratories) was incubated at 25° C. with the fluorogenic substrate H-DPro-Phe-Arg-AFC and various concentrations of the test compound. Residual enzyme activity (initial rate of reaction) was determined by measuring the change in […] at 410 nm and the IC50 value for the test compound was determined.
The term IC50 denotes the midpoint of a concentration-inhibition curve. For the molecule `Nc1nccc2cc(CNC(=O)[C@H](Cc3ccc(F)c(F)c3)NC(=O)c3ccc4ncsc4c3)ccc12` [Example 0.40], the IC50 fell in the range of 10 to 40 µM.

For `Nc1nccc2cc(CNC(=O)CNC(=O)[C@H](N)CCc3ccccc3)ccc12` [Example 6.02], the IC50 fell in the range of 0.28 to 1 µM. Next, `Nc1nccc2cc(CNC(=O)[C@@H]3CCCN(C(=O)[C@H](N)CCc4ccccc4)C3)ccc12` [Example 17.04]: 3 to 10 µM. For `C[C@@H]1CCC[C@H](C)N1CC(=O)N[C@H](CC(=O)NCc1ccc2c(N)nccc2c1)Cc1ccccc1` [Example 39.04] the value was 10 to 40 µM; for `C[C@H](NC(=O)[C@@H](CCc1ccccc1)NS(C)(=O)=O)C(=O)NCc1ccc2[nH]cc(Cl)c2c1` [Example 9.16], 10 to 40 µM; for `C[C@@H]1CCC[C@H](C)N1CC(=O)NC(C)(C)C(=O)NCc1ccc2c(N)nccc2c1` [Example 39.08], 10 to 40 µM. Next, `CC(C)n1cc(C(=O)N[C@@H](Cc2ccc(F)c(F)c2)C(=O)NCc2ccc3c(N)nccc3c2)cn1` [Example 0.07]: 10 to 40 µM; `CC(C)N[C@H](CCCCN1CCOCC1)C(=O)N1CC[C@H]1C(=O)NCc1ccc2[nH]cc(Cl)c2c1` [Example 10.20]: 0.28 to 1 µM. In the case of `CC(C)n1nnc2cc(C(=O)N[C@@H](Cc3ccc(F)c(F)c3)C(=O)NCc3ccc4c(N)nccc4c3)ccc21` [Example 0.38], the IC50 was 10 to 40 µM. Regarding `Nc1nccc2cc(CNC(=O)[C@H](Cc3ccc(F)c(F)c3)NC(=O)c3ccncc3)ccc12` [Example 0.35], the IC50 lay in the range of 10 to 40 µM. As for `CCCS(=O)(=O)N[C@@H](Cc1ccc(F)c(F)c1)C(=O)NCc1ccc2c(N)nccc2c1` [Example 55.01], the IC50 was 10 to 40 µM. `Nc1nccc2cc(CNC(=O)[C@H](Cc3ccc(F)c(F)c3)NC(=O)c3cc4ccccc4o3)ccc12` [Example 0.48]: the IC50 was 10 to 40 µM. Consider `Nc1nccc2cc(CNC(=O)[C@H](Cc3ccc(F)c(F)c3)NC(=O)CN3CCCC3=O)ccc12` [Example 3.37], for which the IC50 lay in the range of 10 to 40 µM.

In the case of `Nc1nccc2cc(CNC(=O)[C@H](Cc3ccc(F)c(F)c3)NC(=O)c3ncccn3)ccc12` [Example 0.18], the IC50 is 10 to 40 µM.

Turning to `Nc1nccc2cc(CNC(=O)[C@H](Cc3ccc(F)c(F)c3)NC(=O)c3cccc(O)n3)ccc12` [Example 0.57], the IC50 lay in the range of 1 to 3 µM. For `C[C@@H]1CCC[C@H](C)N1CC(=O)N1CCC[C@@H](C(=O)NCc2ccc3c(N)nccc3c2)C1` [Example 32.08] the value was 1 to 3 µM; for `CC[C@H](NC(=O)[C@@H](CCc1ccccc1)NC(=O)OC(C)(C)C)C(=O)NCc1ccc2c(N)nccc2c1` [Example 6.04], 10 to 40 µM.

As to `C[C@@H]1CCC[C@H](C)N1CC(=O)N[C@@H](Cc1csc2ccccc12)C(=O)NCc1ccc2c(N)nccc2c1` [Example 3.10], the IC50 lay within 0.03 to 0.1 µM. Regarding `Nc1nccc2cc(CNC(=O)[C@H](Cc3ccc(F)c(F)c3)NC(=O)CCn3cnc4ccccc43)ccc12` [Example 20.05], the IC50 was in the range of 10 to 40 µM. For `CN(C)CC(=O)N[C@@H](Cc1ccc(F)c(F)c1)C(=O)NCc1ccc2c(N)nccc2c1` [Example 3.03], the IC50 was in the range of 1 to 3 µM. On to `Nc1nccc2cc(CNC(=O)[C@H](Cc3ccc(F)c(F)c3)NC(=O)c3ccc[nH]c3=O)ccc12` [Example 0.13], for which the IC50 was in the range of 3 to 10 µM. For `Nc1nccc2cc(CNC(=O)[C@H](Cc3ccc(F)c(F)c3)NC(=O)c3ccn[nH]3)ccc12` [Example 0.29] the value was 3 to 10 µM; for `Nc1nccc2cc(CNC(=O)[C@H](Cc3ccc(F)c(F)c3)NC(=O)C[C@@H]3CCCO3)ccc12` [Example 3.35], 10 to 40 µM; for `Nc1nccc2cc(CNC(=O)[C@H](Cc3ccc(F)c(F)c3)NC(=O)c3ccnnc3)ccc12` [Example 0.16], 3 to 10 µM.

As for `C[C@@H]1CCC[C@H](C)N1CC(=O)N[C@@H](Cc1ccc(Cl)cc1)C(=O)NCc1ccc2c(N)nccc2c1` [Example 3.12], the IC50 was in the range of 3 to 10 µM.

On to `Nc1nccc2cc(CNC(=O)[C@H](Cc3ccc(F)c(F)c3)NC(=O)c3cnc4n(c3=O)CCS4)ccc12` [Example 0.37], for which the IC50 lay in the range of 1 to 3 µM. As for `CN1CCN(c2cccc(C(=O)N[C@@H](Cc3ccc(F)c(F)c3)C(=O)NCc3ccc4c(N)nccc4c3)c2)CC1` [Example 0.08], the IC50 was 3 to 10 µM. Next, `CS(=O)(=O)c1cccc(C(=O)N[C@@H](Cc2ccc(F)c(F)c2)C(=O)NCc2ccc3c(N)nccc3c2)c1` [Example 0.47]: 3 to 10 µM. In the case of `CC1CCCC(C)N1CC(=O)N[C@@H](Cc1cccc2ccccc12)C(=O)NCc1ccc2c(N)nccc2c1` (stereo partly drawn) [Example 3.02], the IC50 lay within 0.1 to 0.279 µM. For `Nc1nccc2cc(CNC(=O)[C@H](Cc3ccc(F)c(F)c3)NC(=O)c3cccc(Cn4cccn4)c3)ccc12` [Example 0.68] the value was 10 to 40 µM; for `Nc1nccc2cc(CNC(=O)[C@H](Cc3ccc(F)c(F)c3)NC(=O)c3ccc4cnccc4c3)ccc12` [Example 0.28], 10 to 40 µM. Turning to `COc1ccc(CNC(=O)[C@H](Cc2ccc(F)c(F)c2)NC(=O)CN2[C@H](C)CCC[C@@H]2C)cc1Cl` [Example 34.01], the IC50 was 10 to 40 µM. Next, `C[C@@H]1CCC[C@H](C)N1CC(=O)N[C@@H](Cc1ccccc1)C(=O)NCc1ccc2c(N)nccc2c1` [Example 3.11]: 0.1 to 0.279 µM. On to `Nc1nccc2cc(CNC(=O)[C@H](Cc3ccc(F)c(F)c3)NC(=O)CN3CCCCC3)ccc12` [Example 3.06], for which the IC50 lay in the range of 1 to 3 µM. Take `Nc1nccc2cc(CNC(=O)[C@H](Cc3ccc(F)c(F)c3)NC(=O)CN3CCCCC3=O)ccc12` [Example 3.39]: the IC50 lay within 10 to 40 µM.

In the case of `CC(O)[C@H](NC(=O)CN1[C@H](C)CCC[C@@H]1C)C(=O)NCc1ccc2c(N)nccc2c1` (stereo partly drawn) [Example 39.06, (2S)—N-[(1-Aminoisoquinolin-6-yl)methyl]-2-{2-[(2R,6S)-2,6-dimethylpiperidin-1-yl]acetamido}-3-hydroxybutanamide], the IC50 is 10 to 40 µM. For `CN(C)[C@H](CCc1ccccc1)C(=O)N[C@@H](Cc1ccc(F)c(F)c1)C(=O)NCc1ccc2c(N)nccc2c1` [Example 0.19] the value was 10 to 40 µM. Next, `CC1CCCC(C)N1CC(=O)N[C@@H](Cc1ccccc1Cl)C(=O)NCc1ccc2c(N)nccc2c1` (stereo partly drawn) [Example 3.05]: 1 to 3 µM; `Nc1nccc2cc(CNC(=O)[C@H](Cc3ccc(F)c(F)c3)NC(=O)Cc3cccnc3)ccc12` [Example 3.23]: 10 to 40 µM. For `CCOC(=O)c1cn(-c2ccc(OC)c(F)c2CNC(=O)[C@H](C)NC(=O)[C@@H](CCc2ccccc2)NC(C)C)nn1` [Example 9.19], the IC50 was in the range of 10 to 40 µM. On to `C[C@@H]1CCC[C@H](C)N1CC(=O)N[C@@H](CCc1ccccc1)C(=O)NCc1ccc2c(N)nccc2c1` [Example 3.15], for which the IC50 was 1 to 3 µM.

As for `Cc1nc2ccccn2c1C(=O)N[C@@H](Cc1ccc(F)c(F)c1)C(=O)NCc1ccc2c(N)nccc2c1` [Example 0.53], the IC50 is 10 to 40 µM. Next, `CC(NC(=O)[C@@H](CCc1ccccc1)NC1CCOCC1)C(=O)NCc1cnc2[nH]cc(Cl)c2c1` (stereo partly drawn) [Example 9.22]: 10 to 40 µM; `CC(C)N[C@H](CCc1ccccc1)C(=O)N[C@@H](Cc1ccc(F)c(F)c1)C(=O)NCc1ccc2c(N)nccc2c1` [Example 12.12]: 3 to 10 µM; `Nc1nccc2cc(CNC(=O)[C@H](Cc3ccc(F)c(F)c3)NC(=O)c3cc(CO)ccn3)ccc12` [Example 0.59]: 3 to 10 µM.

For the origin of these results see US20220298138A1, “ENZYME INHIBITORS” (KALVISTA PHARMACEUTICALS LIMITED, priority 2019, published 2022).
